Source: patent US9102648B1, “Bioavailable diacylhydrazine ligands for modulating the expression of exogenous genes via an ecdysone receptor complex” (Intrexon Corporation, priority 2003, dated 2015)
Where two headings read alike, the source gives them in different places.

Target: T1, Bombyx mori EcR (VP16 fusion, CVBE switch construct) (Bombyx mori, UniProt P49881)
T1 sequence (P49881 86-606): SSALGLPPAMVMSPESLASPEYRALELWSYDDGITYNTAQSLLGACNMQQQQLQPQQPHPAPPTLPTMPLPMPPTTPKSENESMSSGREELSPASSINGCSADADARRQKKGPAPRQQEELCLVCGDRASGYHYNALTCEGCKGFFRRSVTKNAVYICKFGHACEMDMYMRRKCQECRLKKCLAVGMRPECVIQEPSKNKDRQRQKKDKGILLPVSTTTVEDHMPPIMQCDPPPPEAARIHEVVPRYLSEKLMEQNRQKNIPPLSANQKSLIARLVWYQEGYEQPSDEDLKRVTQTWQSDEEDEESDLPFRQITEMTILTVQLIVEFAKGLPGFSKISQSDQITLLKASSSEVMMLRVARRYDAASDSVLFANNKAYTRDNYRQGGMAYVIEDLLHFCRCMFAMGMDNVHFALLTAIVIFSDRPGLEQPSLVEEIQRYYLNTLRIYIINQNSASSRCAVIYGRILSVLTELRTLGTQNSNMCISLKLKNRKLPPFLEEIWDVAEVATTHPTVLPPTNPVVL
T1 sequence (P19793 1-462 partner): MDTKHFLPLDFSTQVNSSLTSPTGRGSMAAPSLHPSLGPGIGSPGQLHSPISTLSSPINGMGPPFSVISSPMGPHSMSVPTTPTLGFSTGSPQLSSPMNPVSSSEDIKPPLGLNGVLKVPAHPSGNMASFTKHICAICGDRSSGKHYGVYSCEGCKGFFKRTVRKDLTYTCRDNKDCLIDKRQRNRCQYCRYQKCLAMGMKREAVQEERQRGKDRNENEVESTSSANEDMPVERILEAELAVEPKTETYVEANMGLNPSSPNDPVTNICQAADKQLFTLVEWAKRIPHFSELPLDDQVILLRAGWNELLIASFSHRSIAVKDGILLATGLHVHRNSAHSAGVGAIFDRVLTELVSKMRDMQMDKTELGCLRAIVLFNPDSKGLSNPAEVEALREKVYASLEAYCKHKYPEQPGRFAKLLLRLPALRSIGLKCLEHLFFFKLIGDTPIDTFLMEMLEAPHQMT
Experiment: Z3 Assay (HEK-293 cells with CVBE and 6XEcRE LacZ, β-galactosidase reporter)
Conditions: for Fold Induction, Z3 Assay, 33 uM: 33 uM ligand; for Fold Induction, Z3 Assay, 33 uM / Fold Induction, Z3 Assay, 3.3 uM: ligand treated / DMSO treated cells; for Fold Induction, Z3 Assay, 3.3 uM: 3.3 uM ligand; for Z3 assay Rel Max FI: maximum fold induction at any concentration relative to that of GS-E ligand; for fold induction at 3.3 µM: HEK293, read-out: Fold Induction, Z3 Assay, 3.3 uM; for fold induction at 33 µM: HEK293, read-out: Fold Induction, Z3 Assay, 33 uM

[1] = read-out: Z3 assay EC50, HEK-293 Z3 cells, β-galactosidase reporter, average of two wells

| Compound | Fold Induction, Z3 Assay, 33 uM (average of two wells) | EC50 [1] | Fold Induction, Z3 Assay, 3.3 uM (average of two wells) | Z3 assay Rel Max FI (HEK-293 Z3 cells) | EC50 | fold induction at 3.3 µM | fold induction at 33 µM |
| --- | --- | --- | --- | --- | --- | --- | --- |
| COc1ccc(Cl)cc1C(=O)N(NC(=O)c1ccc2c(c1C)CCCO2)C(C)(C)C [RG-115551] | 470 | 398 nM | – | – | – | – | – |
| CCc1c(C(=O)NN(C(=O)c2ccc(F)c(F)c2F)C(C)(C)C)ccc2c1OCCO2 [RG-115580] | 615 | 182 nM | – | – | – | – | – |
| COc1cnccc1C(=O)N(NC(=O)c1cccc(O)c1C)C(C)(C)C [RG-115595] | 1067 | 5620 nM | 44 | 0.686 | – | – | – |
| CCc1c(OC)cccc1C(=O)NN(C(=O)c1cc(C)cc(C)c1)C(C)(C)C=NNC(=O)C(N)=O [RG-115597, oxamic carbazide of 2-ethyl-3-methoxy-benzoic acid N′-(3,5-dimethyl-benzoyl)-N′-(1,1-dimethyl-2-oxo-ethyl)-hydrazide] | 942 | – | – | – | – | – | – |
| CCc1c(OC)cccc1C(=O)NN(C(=O)c1ccc(Cl)cc1[N+](=O)[O-])C(C)(C)C [RG-115647] | 510 | 145 nM | 96 | 0.923 | – | – | – |
| CCc1c(OC)cccc1C(=O)NN(C(=O)c1cc(C)cc(C)c1)C(C)(C)C=NNC(N)=O [RG-115653, semicarbazide of 2-ethyl-3-methoxy-benzoic acid N′-(3,5-dimethyl-benzoyl)-N′-(1,1-dimethyl-2-oxo-ethyl)-hydrazide] | 666 | – | – | – | – | – | – |
| Cc1ccc([N+](=O)[O-])c(C(=O)N(NC(=O)c2ccc3c(c2C)CCCO3)C(C)(C)C)c1 [RG-115664] | 620 | 126 nM | 209 | 0.846 | – | – | – |
| CCc1c(OC)cccc1C(=O)NN(C(=O)c1cc(C)cc(C)c1)C(C)(C)CO[Si](C)(C)C(C)(C)C [RG-115665, 2-ethyl-3-methoxy-benzoic acid N′-[2-(tert-butyl-dimethyl-silanyloxy)-1,1-dimethyl-ethyl]-N′-(3,5-dimethyl-benzoyl)-hydrazide] | – | – | – | 0.09 | 12200 nM | 6 | 74 |
| CCC(N(NC(=O)c1cccc(OC)c1C)C(=O)c1cc(C)cc(C)c1)C(C)(C)C (stereo not drawn) [RG-115819, 3,5-dimethyl-benzoic acid N-(1-ethyl-2,2-dimethyl-propyl)-N′-(3-methoxy-2-methyl-benzoyl)-hydrazide] | – | – | – | 0.915 | 42 nM | 1430 | 722 |
| CCC(N(NC(=O)c1cccc(OC)c1C)C(=O)c1cc(OC)c(C)c(OC)c1)C(C)(C)C (stereo not drawn) [RG-115820, 3,5-dimethoxy-4-methyl-benzoic acid N-(1-ethyl-2,2-dimethyl-propyl)-N′-(3-methoxy-2-methyl-benzoyl)-hydrazide] | – | – | – | 0.887 | 203 nM | 1410 | 701 |
| CCCC(N(NC(=O)c1cccc(OC)c1C)C(=O)c1cc(C)cc(C)c1)C(C)(C)C (stereo not drawn) [RG-115823] | 1050 | 20 nM | 1440 | 0.933 | – | – | – |
| CCCC(N(NC(=O)c1cccc(OC)c1C)C(=O)c1cc(OC)c(C)c(OC)c1)C(C)(C)C (stereo not drawn) [RG-115824] | 737 | 46 nM | 895 | 0.806 | – | – | – |
| CCCC(N(NC(=O)c1cccc(OC)c1CC)C(=O)c1cc(OC)c(C)c(OC)c1)C(C)(C)C (stereo not drawn) [RG-115829, 3,5-Dimethoxy-4-methyl-benzoic acid N-(1-tert-butyl-butyl)-N′-(2-ethyl-3-methoxy-benzoyl)-hydrazide] | – | – | – | 0.937 | 58 nM | 1440 | 319 |
| CCCC(N(NC(=O)c1cccc(OC)c1CC)C(=O)c1cc(C)cc(C)c1)C(C)(C)C (stereo not drawn) [RG-115830] | 983 | 45 nM | 1604 | 1.020 | – | – | – |
| CCc1c(OC)cccc1C(=O)NN(C(=O)c1cc(OC)c(C)c(OC)c1)C(CC)C(C)(C)C (stereo not drawn) [RG-115831] | 544 | 102 nM | 1481 | 0.937 | – | – | – |
| CCc1c(OC)cccc1C(=O)NN(C(=O)c1cc(C)cc(C)c1)C(CC)C(C)(C)C (stereo not drawn) [RG-115832] | 621 | 37 nM | 1564 | 1.002 | – | – | – |
